molecular target: Mcl-1 protein (UniProtKB primary accession number: Q07820) (Homo sapiens, UniProt Q07820); assay: Inhibition of Mcl-1 by fluorescence polarisation, Method 1; assay type: binding; details: fluorescence polarisation test; Method 2 values are underlined in the patent (underlining not visible here); read-out: IC50 (M) Mcl-1 FP
Procedure: The relative binding potency of each compound was determined via Fluorescence Polarisation (FP).
An 11 point serial dilution of each compound was prepared in DMSO and 2 μl transferred into flat bottomed, low binding, 384-well plate (final DMSO concentration 5%). 38 μl of buffer (10 mM 4-(2-hydroxyethyl)-1-piperazineethanesulfonic acid [HEPES], 150 mM NaCl, 0.05% Tween 20, pH 7.4), containing the Fluorescein labelled ligand (final concentration 1 nM) and Mcl-1 protein (final concentration 5 nM) was then added.

Mcl-1 protein, sequence (Q07820 whole entry): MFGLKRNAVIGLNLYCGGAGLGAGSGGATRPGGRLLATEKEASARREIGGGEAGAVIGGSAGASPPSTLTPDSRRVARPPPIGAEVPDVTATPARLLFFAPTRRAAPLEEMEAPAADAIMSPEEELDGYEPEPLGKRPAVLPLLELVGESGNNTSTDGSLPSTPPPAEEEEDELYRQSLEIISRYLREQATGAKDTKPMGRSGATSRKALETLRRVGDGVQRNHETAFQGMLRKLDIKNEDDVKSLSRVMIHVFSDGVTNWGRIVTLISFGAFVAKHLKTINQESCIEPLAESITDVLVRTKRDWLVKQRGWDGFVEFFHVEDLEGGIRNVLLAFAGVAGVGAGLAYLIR

Compared with `Cc1c(-c2c(-c3ccc(F)o3)sc3ncnc(OC(Cc4ccccc4OCc4ccccn4)C(=O)O)c23)ccc(OCCN2CCN(C)CC2)c1Cl` (single isomer, unassigned) [Example 165], `COc1ccccc1CC(Oc1ncnc2sc(-c3ccc(F)cc3)c(-c3ccc(OCCN4CCN(C)CC4)c(Cl)c3C)c12)C(=O)O` [Example 1, (2R)-2-{[(5Sa)-5-{3-chloro-2-methyl-4-[2-(4-methylpiperazin-1-yl)ethoxy]phenyl}-6-(4-fluorophenyl)thieno[2,3-d]pyrimidin-4-yl]oxy}-3-(2-methoxyphenyl)propanoic acid] is 20-fold lower in IC50: 1.6e-06 M for the first, 8e-08 M for the second.

Going from `Cc1c(-c2c(-c3ccc(F)o3)sc3ncnc(OC(Cc4ccccc4OCc4ccccn4)C(=O)O)c23)ccc(OCCN2CCN(C)CC2)c1Cl` (single isomer, unassigned) [Example 166] to `Cc1c(-c2c(-c3ccc(F)cc3)sc3ncnc(OC(Cc4ccccc4OCC4CCCO4)C(=O)O)c23)ccc(OCCN2CCN(C)CC2)c1Cl` [Example 2, (2R)-2-{[(5Sa)-5-{3-chloro-2-methyl-4-[2-(4-methylpiperazin-1-yl)ethoxy]phenyl}-6-(4-fluorophenyl)thieno[2,3-d]pyrimidin-4-yl]oxy}-3-{2-[(2R)-tetrahydrofuran-2-ylmethoxy]phenyl}propanoic acid], the IC50 rises from 6e-09 M to 1.2e-08 M (2-fold). The first is the more potent here.

`COc1ccccc1CC(Oc1ncnc2sc(-c3ccco3)c(-c3ccc(OC4CCCCN(C)C4)c(Cl)c3C)c12)C(=O)O` (single isomer, unassigned) [Example 300, (2R)-2-{[(5Sa)-5-{3-chloro-2-methyl-4-[(3R or S)-(1-methylazepan-3-yl)oxy]phenyl}-6-(furan-2-yl)thieno[2,3-d]pyrimidin-4-yl]oxy}-3-(2-methoxyphenyl)propanoic acid] and `COc1ccccc1CC(Oc1ncnc2sc(-c3ccco3)c(-c3ccc(OCCC4CN(C)CCO4)c(Cl)c3C)c12)C(=O)O` (single isomer, unassigned) [Example 318] are within 1.5-fold of each other in IC50: 3.7e-08 M for the first, 3e-08 M for the second.

Compared with `COc1ccccc1C[C@@H](Oc1ncnc2sc(-c3ccco3)c(-c3ccc(OCCN4CCN(C)CC4)c(F)c3C)c12)C(=O)O` (single isomer, unassigned) [Example 333], `Cc1c(-c2c(-c3ccco3)sc3ncnc(O[C@@H](C(=O)O)[C@@H](O)c4ccccc4)c23)ccc(OCCN2CCN(C)CC2)c1Cl` (single isomer, unassigned) [Example 342] is 2.3-fold lower in IC50: 7.9e-07 M for the first, 3.5e-07 M for the second. The second is the more potent here.

`Cc1c(-c2c(-c3ccco3)sc3ncnc(O[C@@H](C(=O)O)[C@@H](O)c4ccccc4)c23)ccc(OCCN2CCN(C)CC2)c1Cl` (single isomer, unassigned) [Example 343] showed an IC50 of 2.5e-07 M.

same assay, conditions: fluorescence polarisation; Method 1, or Method 2; read-out: IC50 (M) Mcl-1 FP

`CC#Cc1sc2ncnc(O[C@H](Cc3ccccc3OC)C(=O)O)c2c1-c1cc(F)c(OC)c(Cl)c1C` (single isomer, unassigned) [Example 470] and `CC#Cc1sc2ncnc(O[C@H](Cc3ccccc3OC)C(=O)O)c2c1-c1ccc(CCCN(C)C)c(Cl)c1C` (single isomer, unassigned) [Example 478] are within 1.5-fold of each other in IC50: 4.8e-07 M for the first, 5.3e-07 M for the second.

Going from `CC#Cc1sc2ncnc(O[C@H](Cc3ccccc3OC)C(=O)O)c2c1-c1cc(F)c(OC)c(Cl)c1C` (single isomer, unassigned) [Example 471] to `CC#Cc1sc2ncnc(O[C@H](Cc3ccccc3OC)C(=O)O)c2c1-c1ccc(CCCN(C)C)c(Cl)c1C` (single isomer, unassigned) [Example 479], the IC50 rises from 6.3e-09 M to 1.1e-08 M (1.7-fold). The first is the more potent here.

Compared with `COc1ccccc1CC(Oc1ncnc2sc(C3CCCO3)c(-c3ccc(OCCN4CCN(C)CC4)c(Cl)c3C)c12)C(=O)O` (single isomer, unassigned) [Example 590, (2R)-2-{[(5Sa)-5-{3-chloro-2-methyl-4-[2-(4-methylpiperazin-1-yl)ethoxy]phenyl}-6-((2S or R)-tetrahydrofuran-2-yl)thieno[2,3-d]pyrimidin-4-yl]oxy}-3-(2-methoxyphenyl)propanoic acid], `COc1ccccc1C[C@@H](Oc1ncnc2sc(-c3ccc(F)cc3)c(-c3cc(F)c(OCCN4CCN(C)CC4)c(Cl)c3C)c12)C(=O)O` (single isomer, unassigned) [Example 665] is 46-fold higher in IC50: 8.4e-08 M for the first, 3.9e-06 M for the second.

First: Cc1c(-c2c(-c3ccc(F)cc3)sc3ncnc(OC(Cc4ccccc4OCC4CCCO4)C(=O)O)c23)ccc(OC2CCCN(C)C2)c1Cl (single isomer, unassigned) [Example 650, (2R)-2-{[(5Sa)-5-{3-chloro-2-methyl-4-[((3R or S)-1-methylpiperidin-3-yl)oxy]phenyl}-6-(4-fluorophenyl)thieno[2,3-d]pyrimidin-4-yl]oxy}-3-{2-[(2R)-tetrahydrofuran-2-ylmethoxy]phenyl}propanoic acid]
Second: Cc1c(-c2c(-c3ccc(F)cc3)sc3ncnc(OC(Cc4ccccc4OCC(F)(F)F)C(=O)O)c23)ccc(OCC2CCCN2C)c1Cl (single isomer, unassigned) [Example 659, (2R)-2-{[(5Sa)-5-{3-chloro-2-methyl-4-[((2R or S)-1-methylpyrrolidin-2-yl)methoxy]phenyl}-6-(4-fluorophenyl)thieno[2,3-d]pyrimidin-4-yl]oxy}-3-[2-(2,2,2-trifluoroethoxy)phenyl]propanoic acid]
The IC50 of the first is 2.3-fold higher: 5.1e-08 M for the first, 2.2e-08 M for the second.

First: COc1ccccc1C[C@@H](Oc1ncnc2sc(-c3ccc(F)cc3)c(-c3ccc(CCCN4CCN(C)CC4)c(Cl)c3C)c12)C(=O)O (single isomer, unassigned) [Example 653]
Second: COc1ccccc1C[C@@H](Oc1ncnc2sc(-c3cccc(F)c3F)c(-c3ccc(C#CCN4CCN(C)CC4)c(Cl)c3C)c12)C(=O)O (single isomer, unassigned) [Example 716]
The IC50 of the first is 94-fold lower: 1.6e-08 M for the first, 1.5e-06 M for the second. The first is the more potent here.

Going from `CCc1sc2ncnc(O[C@@H](Cc3ccccc3OC)C(=O)O)c2c1-c1ccc(O)c(Cl)c1C` (single isomer, unassigned) [Example 679] to `CCc1sc2ncnc(OC(Cc3ccccc3OC)C(=O)O)c2c1-c1ccc(O)c(Cl)c1C` (single isomer, unassigned) [Example 681], the IC50 falls from 8.9e-07 M to 6.7e-09 M (130-fold). The second is the more potent here.

Compared with `CCc1sc2ncnc(O[C@@H](Cc3ccccc3OC)C(=O)O)c2c1-c1ccc(O)c(Cl)c1C` (single isomer, unassigned) [Example 680], `CCc1sc2ncnc(O[C@H](Cc3ccccc3OC)C(=O)O)c2c1-c1ccc(O)c(Cl)c1C` (single isomer, unassigned) [Example 682] is 55-fold lower in IC50: 2.8e-05 M for the first, 5.1e-07 M for the second.

First: C=C(C)c1sc2ncnc(O[C@H](Cc3ccccc3)C(=O)O)c2c1-c1cccc(Cl)c1C (single isomer, unassigned) [Example 719]
Second: COc1ccccc1-c1nccc(COc2ccccc2CC(Oc2ncnc3sc(-c4ccc(OCCc5ccccc5)cc4)c(-c4ccc(OCCN5CCN(C)CC5)c(Cl)c4C)c23)C(=O)O)n1 (single isomer, unassigned) [Example 765]
The IC50 of the first is 4.1-fold higher: 2.7e-06 M for the first, 6.58e-07 M for the second.

First: C=C(C)c1sc2ncnc(O[C@H](Cc3ccccc3)C(=O)O)c2c1-c1cccc(Cl)c1C (single isomer, unassigned) [Example 720]
Second: COc1ccccc1-c1nccc(COc2ccccc2CC(Oc2ncnc3sc(-c4ccc(Oc5ccccc5)cc4)c(-c4ccc(OCCN5CCN(C)CC5)c(Cl)c4C)c23)C(=O)O)n1 (single isomer, unassigned) [Example 758]
The IC50 of the first is 8-fold lower: 4.4e-08 M for the first, 3.53e-07 M for the second.

With `COc1ccccc1-c1nccc(COc2ccccc2CC(Oc2ncnc3sc(-c4ccc(OCCN5CCOCC5)cc4)c(-c4ccc(OCCN5CCN(C)CC5)c(Cl)c4C)c23)C(=O)O)n1` (single isomer, unassigned) [Example 763] the IC50 was 9.05e-08 M.
